Columns and labels:
MDA-MB-231 = assay: Anti-proliferative activity of compound against human breast cancer MDA-MB-231 by standard MTT assay; format: functional, cell-based
PC-3 = assay: Anti-proliferative activity of compound against human prostate cancer PC-3 by standard MTT assay; format: functional, cell-based; conditions: PC-3, Prostate gland
SQ20B = assay: Anti-proliferative activity of compound against human head/neck cancer SQ20B by standard MTT assay; format: functional, cell-based
U-87 MG = assay: Anti-proliferative activity of compound against human glioblastoma tumor cell line U87 by standard MTT assay; format: functional, cell-based, U-87MG ATCC
NALM-6 = assay: Anti-proliferative activity of compound against human leukemia NALM-6 by standard MTT assay; format: functional, cell-based

IC50 (MDA-MB-231) | IC50 (PC-3) | IC50 (U-87 MG) | Structure (SMILES) | IC50 (SQ20B) | IC50 (NALM-6)
> 250 µM | > 250 µM | > 250 µM | OC[C@H]1CC[C@H]([C@@H](O)CO)O1 [WHI-259] | > 250 µM | > 250 µM
> 250 µM | > 250 µM | > 250 µM | C[C@@H](O)[C@H]1CC[C@H](CO)O1 [WHI-260] | > 250 µM | > 250 µM
7 µM | 171 µM | 107 µM | CCCCCCCCCCCC[C@@H](O)[C@H]1CC[C@H](CO)O1 [WHI-261] | 140 µM | 49 µM
> 250 µM | > 250 µM | > 250 µM | O=S(=O)(CC[C@@H](O)[C@H]1CC[C@H](COCc2ccccc2)O1)c1ccccc1 [WHI-262] | > 250 µM | > 250 µM
